Data as given in US4161598A, “1-Oxygenated-2,6-methano-3-benzazocines” (Sterling Drug Inc., priority 1977, dated 1979).
Where a name gives a salt, the structure may show the parent alone. Read-outs that look alike come from different tables or passages of the source.

Legend:
[1] = tested on: acetylcholine; test: Anti-acetylcholine Writhing Test; type: in vivo, mice; conditions: subcutaneous; for ED50: Mus musculus, sc, 20 min, read-out: Subcutaneous ED50 (95% Confidence Limits)
Method: This response has also been called writhing. Animals are pretreated with test compounds (20 minutes for both subcutaneous and oral routes) and observed for two minutes immediately following the administration of acetylcholine. Mice not responding during the two-minute observation period are scored protected while those responding one or more times are scored not protected. Test compounds are screened at doses of 75 and 25 mg./kg. subcutaneously or 150 and 50 mg./kg. orally. […] ED50 values for active compounds are estimated by probit analysis of quantal scores for 4 or more dosage levels using 15 animals per dose. Vehicle-pretreated control animals are tested concurrently with each run of 15 experimental animals.

[2] = tested on: thermal stimulus applied to the tail; test: Tail-flick Agonist Test; type: in vivo, Rats; conditions: for ED50: Rattus norvegicus, sc, 0.5 h, subcutaneously, unit inferred, read-out: agonist ED50; for activity as agonist: tail-flick test, result in words
Method: Rats normally respond to a thermal stimulus applied to the tail by flicking their tails out from under the heat source. The intensity of the stimulus utilized is one which produces control response-times (CRT) of 2-4 seconds. Experimental response-times (ERT) are determined 30 minutes after subcutaneous injections and 60 minutes after oral medications. […] Therefore, the maximum possible increase (MPI) in response-time for any given animal is 20 minus the CRT. The average percent effect, or percent of the maximum possible increase (%MPI) obtained after any given test compound treatment is calculated by the formula [formula] […] ED50 or ED80 values of active compounds are obtained by the Miller and Tainter [Proc. Soc. Exptl.

[3] = tested on: narcotics; test: Tail-flick Antagonist Test, narcotic not specified; conditions: tail-flick antagonist test; result in words
[4] = tested on: phenazocine; test: Tail-flick Antagonist Test against phenazocine; conditions: for ED50: Rattus norvegicus, sc, 10 min, read-out: Subcutaneous AD50 (95% Confidence Limits) Against Phenazocine
[5] = tested on: meperidine; test: Tail-flick Antagonist Test against meperidine; conditions: Rattus norvegicus, sc, 10 min, read-out: Subcutaneous AD50 (95% Confidence Limits) Against Meperidine
[6] = Ziering reference; all tests other than writhing; cited from earlier work

| Structure (SMILES) | ED50 ([1]; form tested not given) | ED50 [4] | also measured |
| --- | --- | --- | --- |
| C[C@H]1[C@H]2C(=O)c3ccc(O)cc3[C@]1(C)CCN2CC1CCC1 (relative stereo) [Example 35B, 1,2,3,4,5,6-hexahydro-1-oxo-3-cyclobutylmethyl-8-hydroxy-6(eq),11(ax)-dimethyl-2,6-methano-3-benzazocine] | 3.9 mg/kg | – | ED50 [2]: 200 ± 49 mg/kg; activity as agonist [2]: weakly active; narcotic antagonist activity [3]: inactive |
| C[C@H]1[C@H]2C(=O)c3ccc(OC(=O)C(C)(C)C)cc3[C@]1(C)CCN2CC1CC1 (relative stereo) [Example 5, 1,2,3,4,5,6-hexahydro-1-oxo-3-cyclopropylmethyl-8-pivalyloxy-6(eq),11(ax)-dimethyl-2,6-methano-3-benzazocine] | 0.06 mg/kg | 38 mg/kg | – |
| C[C@H]1[C@H]2C(=O)c3ccc(O)cc3[C@]1(C)CCN2CC1CC1 [Example 26C, 2S,6R,11R-1,2,3,4,5,6-hexahydro-1-oxo-3-cyclopropylmethyl-8-hydroxy-6(eq),11(ax)-dimethyl-2,6-methano-3-benzazocine] | – | 2.4 mg/kg | ED50 ([1]; methanesulfonate salt): 0.11 mg/kg |
| CCCN1CC[C@@]2(C)c3cc(O)ccc3C(=O)[C@@H]1[C@@H]2C (relative stereo) [Example 15, 1,2,3,4,5,6-hexahydro-1-oxo-3-propyl-8-hydroxy-6(eq),11(ax)-dimethyl-2,6-methano-3-benzazocine] | 3.2 mg/kg | 2.8 mg/kg | – |
| C=CCN1CC[C@@]2(C)c3cc(O)ccc3[C@@H](O)[C@@H]1[C@@H]2C (relative stereo) [Example 17, 1,2,3,4,5,6-hexahydro-1(eq),8-dihydroxy-3-allyl-6(eq),11(ax)-dimethyl-2,6-methano-3-benzazocine] | 4.8 mg/kg | – | ED50 [5]: 0.98 mg/kg |
| CCCC(=O)Oc1ccc2c(c1)[C@]1(C)CCN(CC3CC3)[C@H](C2=O)[C@@H]1C (relative stereo) [Example 4, 1,2,3,4,5,6-hexahydro-1-oxo-3-cyclopropylmethyl-8-butyryloxy-6(eq),11(ax)-dimethyl-2,6-methano-3-benzazocine hydrochloride] | 0.14 mg/kg | 6.2 mg/kg | – |
| C=CCN1CC[C@@]2(C)c3cc(O)ccc3C(=O)[C@@H]1[C@@H]2C (relative stereo) [Example 16, 1,2,3,4,5,6-hexahydro-1-oxo-3-allyl-8-hydroxy-6(eq),11(ax)-dimethyl-2,6-methano-3-benzazocine] | 1.5 mg/kg | 2.2 mg/kg | – |
| C=CCN1CC[C@@]2(CC)c3cc(O)ccc3C(=O)[C@@H]1[C@@H]2C (relative stereo) [Example 37, 1,2,3,4,5,6-hexahydro-3-allyl-1-oxo-8-hydroxy-6(eq)-ethyl-11(ax)-methyl-2,6-methano-3-benzazocine] | 2.3 mg/kg | 6.3 mg/kg | – |
| CC[C@]12CCN(CC3CC3)[C@H](C(=O)c3ccc(O)cc31)[C@H]2C (relative stereo) [Example 30C, 1,2,3,4,5,6-hexahydro-1-oxo-3-cyclopropylmethyl-8-hydroxy-6(eq)-ethyl-11(eq)-methyl-2,6-methano-3-benzazocine hydrochloride] | 2.1 mg/kg | 4.2 mg/kg | – |
| CC[C@H]1[C@H]2C(=O)c3ccc(O)cc3[C@]1(C)CCN2CC1CC1 (relative stereo) [Example 33E, 1,2,3,4,5,6-hexahydro-1-oxo-3-cyclopropylmethyl-8-hydroxy-6(eq)-methyl-11-(ax)-ethyl-2,6-methano-3-benzazocine] | 0.47 mg/kg | 0.17 mg/kg | – |
| C[C@H]1[C@H]2C(=O)c3ccc(O)cc3[C@]1(C)CCN2CCc1ccccc1 (relative stereo) [Example 34, 1,2,3,4,5,6-hexahydro-1-oxo-3-(2-phenylethyl)-8-hydroxy-6(eq),11(ax)-dimethyl-2,6-methano-3-benzazocine] | 4.2 mg/kg | – | ED50 [2]: 56 ± 9.1 mg/kg; activity as agonist [2]: weakly active; narcotic antagonist activity [3]: inactive |
| C[C@H]1[C@H]2[C@H](O)c3ccc(O)cc3[C@]1(C)CCN2CC1CC1 (relative stereo) [Example 18, 1,2,3,4,5,6-hexahydro-1(eq),8-dihydroxy-3-cyclopropylmethyl-6(eq), 11(ax)-dimethyl-2,6-methano-3-benzazocine hydrochloride] | 10 mg/kg | – | ED50 [5]: 11 mg/kg |
| CC(=O)Oc1ccc2c(c1)[C@]1(C)CCN(CC3CC3)[C@H](C2=O)[C@@H]1C (relative stereo) [Example 2, 1,2,3,4,5,6-hexahydro-1-oxo-3-cyclopropylmethyl-8-acetoxy-6(eq),11(ax)-dimethyl-2,6-methano-3-benzazocine hydrochloride] | – | 3 mg/kg | ED50 ([1]; hydrochloride salt): 0.14 mg/kg |
| CCC(=O)Oc1ccc2c(c1)[C@]1(C)CCN(CC3CC3)[C@H](C2=O)[C@@H]1C (relative stereo) [Example 3, 1,2,3,4,5,6-hexahydro-1-oxo-3-cyclopropylmethyl-8-propionyloxy-6(eq),11(ax)-dimethyl-2,6-methano-3-benzazocine hydrochloride] | – | 6 mg/kg | % effect ([1]; 0.1 mg./kg.): 20%; % effect ([1]; 1 mg./kg.): 27%; % effect ([1]; 10 mg./kg.): 7%; % effect ([1]; 100 mg./kg.): 47% |
| C[C@@H]1[C@@H]2C(=O)c3ccc(O)cc3[C@@]1(C)CCN2CC1CC1 [Example 26D, dextro-rotatory 2S,6R,11R-1,2,3,4,5,6-hexahydro-1-oxo-3-cyclopropylmethyl-8-hydroxy-6(eq),11(ax)-dimethyl-2,6-methano-3-benzazocine] | – | – | % effect ([1]; 25 mg./kg., methanesulfonate salt): 33%; % effect ([1]; 75 mg./kg., methanesulfonate salt): 93%; narcotic antagonist effect against phenazocine ([4]; 10 mg./kg. subcutaneously, methanesulfonic salt, in words): inactive; % effect against phenazocine ([4]; 80 mg./kg. subcutaneously, methanesulfonic salt): 32% |
| CC[C@@]12CCN(CC3CC3)[C@@H](C1)C(=O)c1ccc(O)cc12 (relative stereo) [Example 28C, 1,2,3,4,5,6-hexahydro-1-oxo-3-cyclopropylmethyl-8-hydroxy-6(eq)-ethyl-2,6-methano-3-benzazocine hydrochloride] | 0.38 mg/kg | 14 mg/kg | – |
| COc1ccc2c(c1)[C@]1(C)CCN(C)[C@@H]([C@@H]1C)[C@@]2(O)c1ccccc1 (relative stereo) [Compound 13] | – | – | activity in all other tests [6]: inactive |
| COc1ccc2c(c1)[C@]1(C)CCN(C)[C@@H]([C@@H]1C)[C@]2(C)O (relative stereo) [Compound 14] | – | – | activity in all other tests [6]: inactive |
| CC[C@H]1[C@H]2C(=O)c3ccc(O)cc3[C@]1(CC)CCN2CC1CC1 (relative stereo) [Example 31C, 1,2,3,4,5,6-hexahydro-1-oxo-3-cyclopropylmethyl-8-hydroxy-6(eq),11(ax)-diethyl-2,6-methano-3-benzazocine] | – | 0.48 mg/kg | ED50 ([1]; methanesulfonate salt): 0.15 mg/kg |
